Converted amounts (≈) assume the structure as drawn. Where two headings read alike, the source gives them in different places.
Key:
E. coli strain ORN178 = assay: MIC and MBC against E. coli strain ORN178; assay type: cell-based; conditions: for concentration determined to be non-inhibitory (up to): inhibitor alone
Protocol: Minimum inhibition concentration (MIC) will be tested in appropriate liquid media in 96-well microtiter plates. Each well contains 5×10^5 CFU/ml of test bacteria, serially diluted extracts and medium. In some cases when chemical solvents are used, it will be tested simultaneously with the test compounds to ensure the absence of antimicrobial activity. Triplicate samples are to be performed.
After 10 min at 37° C., the treated bacterial (or fungal) culture will be diluted and viable colony counts determined. The ability of goldenseal extract in killing test organisms will be elucidated.
Antimicrobial Characteristics of Goldenseal: Antimicrobial activities of SHF NOP certified Hydrastis were evaluated and compared to that of pure chemical berberine sulfate and berberine chloride. […] The synergistic effects of berberine with the known MDR pump inhibitor (reserpine and orthovanadate) as well as Hydrastis root extracts with leaf extracts were also determined. Please refer to the Materials and Methods section for detailed protocol. All extracts were lyophilized and reconstituted in H2O.

[1] = test system: Human gastric adenocarcinoma (AGS) cells; assay: growth reduction of AGS cells; assay type: cell-based
Source text: Hydrastis leaf extract produced activity slightly less than the control or root extract but contained one fifth of the berberine indicating synergistic and/or additive compounds exist in the leaf. Antineoplastic—Cancer Cell Cultures. This assay measures the ability of Hydrastis to stimulate or arrest metabolic activity of tumor cells. Human gastric adenocarcinoma (AGS), CaCo2 colon cancer cells and normal colon epithelial tissue (ATCC) will be grown in Petri plates on Dulbecco's Modified Eagle Medium (DME) with 4 mM L-glutamine, 4.5 g/l glucose and 10% fetal bovine serum. CRL 7368 Breast Cancer cells and CRL 7367 Fibroblast control cells will be grown in Petri plates on DME with 4 mM L-glutamine, 4.5 g/l glucose, 1.5 g/l sodium bicarbonate and 10% fetal bovine serum. A 95% confluent layer of healthy cells will be divided as follows: surface media will be poured from the plates so that the cells are not dislodged. Ten milliliters of sterile phosphate-buffered saline (PBS) will be added to the plates to rinse the cell layer and then discarded. […] Cellular release by the trypsin is indicated when the cell layer moves when the plate is tilted. Dislodged cells will be added to 15 ml sterile tubes containing 1 ml calf serum. […] The cellular pellet is suspended in 5 ml of medium by mixing. A cell suspension aliquot (0.1 ml) is added to 0.9 ml of 0.4% Trypan Blue and mixed. Cell counts will be made using a hemocytometer charged with the cell suspension. Aliquots of the cell suspension (based on cell count) will be added to Petri plates, then 15 ml of media will be added and the plates incubated at 37° C. in a CO2 incubator. Cells will be checked daily for contamination and morphology. Media will be replaced every 2 to 3 days with fresh medium. The Cell Titer 96® AQueous Non-radioactive Cell proliferation Assay manufactured by Promega, is a colorimetric method used to measure dehydrogenase activity found in metabolically active cells. The MTS is reduced to formazan in the presence of metabolically active cells and the absorbance of formazan is measured spectrophotometrically. Two days post subculture, cells will be rinsed twice with respective media, harvested, and the cell concentration adjusted to 1×10^5 cells/ml. Fifty μl of the cell suspension will be added to the individual wells of a 96-well microtiter plate. Each well will contain 50 μl of the test sample (extract) or standard reference drug. Plates will be incubated for 48 to 72 hr at 37° C. in a CO2 incubator. After incubation, 20 μl of MTS/PMS solution will be added, and the plates incubated for an additional 1 to 4 hr. At the end of the incubation period, absorbance will be recorded at 490 nm.

[2] = in 2.5 hrs; cited from earlier work
[3] = test system: human gastric carcinoma SNU-5 cells; conditions: SNU-5 cell line; cited from earlier work
[4] = test system: HT-1080 (human fibrosarcoma); conditions: cited from earlier work
[5] = hyperlipidemic hamsters; cited from earlier work
murine leukemia L1210 = conditions: cited from earlier work
Streptococcus mutans = conditions: Hwang (2003); cited from earlier work
[6] = test system: CaCo2, a colon epithelial cell line; assay: MTS cell proliferation assay, CaCo2; assay type: cell-based
Protocol: Another study at Clemson examined the anti-tumor properties of berberine when combined with pump inhibitory characteristics of leaf extracts from Hydrastis. […] Anti-tumor properties block uncontrolled growth, while pump inhibitory properties aid in lowering the dosage of drugs needed to treat the patient.
MTS assay was used to measure cell proliferation.
The MTS is reduced to formazan in the presence of metabolically active cells and the absorbance of formazan is measured spectrophotometrically. Two days post subculture, cells will be rinsed twice with respective media, harvested, and the cell concentration adjusted to 1×10^5 cells/ml. Fifty μl of the cell suspension will be added to the individual wells of a 96-well microtiter plate. Each well will contain 50 μl of the test sample (extract) or standard reference drug. Plates will be incubated for 48 to 72 hr at 37° C. in a CO2 incubator. After incubation, 20 μl of MTS/PMS solution will be added, and the plates incubated for an additional 1 to 4 hr. At the end of the incubation period, absorbance will be recorded at 490 nm.

[7] = oral, 32 patients, 3 months; cited from earlier work
Giardia = conditions: three divided doses for 6 days; berberine 5 mg/kg/day, metronidazole 10 mg/kg/day; cited from earlier work
hepatoma HepG2 cells = conditions: cited from earlier work
[8] = test system: McF7, a breast epithelial cell line; assay: MTS cell proliferation assay, McF7; assay type: cell-based
Source text: Another study at Clemson examined the anti-tumor properties of berberine when combined with pump inhibitory characteristics of leaf extracts from Hydrastis. This combination inhibited proliferation of both CaCo2, a colon epithelial cell line, and McF7, a breast epithelial cell line. […] Anti-tumor properties block uncontrolled growth, while pump inhibitory properties aid in lowering the dosage of drugs needed to treat the patient. MTS assay was used to measure cell proliferation. Cell proliferation of McF7 was reduced to 45% of the control when treated with 2% of berberine. […] However, a synergetic effect was observed when combining 0.5% berberine with 1.5% leaf extract. Proliferation of McF7 was reduced to 59% compared to the untreated cells. The Cell Titer 96® AQueous Non-radioactive Cell proliferation Assay manufactured by Promega, is a colorimetric method used to measure dehydrogenase activity found in metabolically active cells. The MTS is reduced to formazan in the presence of metabolically active cells and the absorbance of formazan is measured spectrophotometrically. Two days post subculture, cells will be rinsed twice with respective media, harvested, and the cell concentration adjusted to 1×10^5 cells/ml. Fifty μl of the cell suspension will be added to the individual wells of a 96-well microtiter plate. […] At the end of the incubation period, absorbance will be recorded at 490 nm.

human tumour HeLa = conditions: cited from earlier work
[9] = test system: Bifidobacterium adolescentis, Lactobacillus acidophilus, and Lactobacillus casei; conditions: cited from earlier work
[10] = test system: Chang (normal) liver cells; conditions: cited from earlier work
[11] = test system: SNU-638 (human stomach adenocarcinoma); conditions: cited from earlier work
Giardiasis = conditions: berberine 10 mg/kg/day for 10 days; metronidazole 20 mg/kg/day for 5-7 days; cited from earlier work
[12] = test system: 15 strains of Helicobacter pylori; conditions: Mahady, 2003; cited from earlier work
transplanted B16 line = conditions: day 16, doses of 5 and 10 mg/kg; cited from earlier work
[13] = test system: COX-2 transcriptional activity in human colon cancer cells; conditions: dose- and time-dependent; cited from earlier work
SA-K2068 = assay: MIC against Staph. strain SA-K2068 (MDR efflux pump distinct from NorA); assay type: cell-based
Source text: (§1) Additional preliminary data regarding the potential synergistic activity of Hydrastis leaf on two Staph. strains SA-1199B and SA-K2068 was developed using Hydrastis extracts. […]

SA-1199B = assay: MIC against Staph. strain SA-1199B (over expresses NorA MDR efflux protein); assay type: cell-based
Source text: as §1

[14] = 10 μg/ml of reserpine or 2 mM of orthovanadate supplemented

Structure (SMILES): COC(=O)[C@H]1[C@H]2C[C@@H]3c4[nH]c5cc(OC)ccc5c4CCN3C[C@H]2C[C@@H](OC(=O)c2cc(OC)c(OC)c(OC)c2)[C@@H]1OC [reserpine]
- concentration determined to be non-inhibitory (up to) (E. coli strain ORN178): Up to 5000 μg/ml

Structure (SMILES): COc1ccc2cc3[n+](cc2c1OC)CCc1cc2c(cc1-3)OCO2 [Berberine chloride]
- % growth reduction of AGS cells ([1]; first volume column, unit μl, berberine chloride control 500 μg/ml): .7%
- % growth reduction of AGS cells ([1]; fourth volume column, unit μl): 2.6%
- % growth reduction of AGS cells ([1]; head printed '0 μl'): 4.2%
- % growth reduction of AGS cells ([1]; head printed '6 μl'): 2.1%
- % growth reduction of AGS cells ([1]; second volume column, unit μl): .5%
- % growth reduction of AGS cells ([1]; third volume column, unit μl): 3.7%

Structure (SMILES): COc1ccc2cc3[n+](cc2c1OC)CCc1cc2c(cc1-3)OCO2 [berberine]
- MBC of berberine reduced to (E. coli strain ORN178; [14]): ¼
- MIC of berberine reduced by (E. coli strain ORN178; [14]): half
- MBC (E. coli strain ORN178; Escherichia coli, ORN178, berberine alone, read-out: MBC (μg/ml berberine)): 125 µg/mL
- MIC (E. coli strain ORN178; Escherichia coli, ORN178, berberine alone, read-out: MIC (μg/ml berberine)): 62.5 µg/mL
- absorbed in the intestine [2]: less than 5%
- IC50 [3]: 48 µM
- IC50 [4]: 3.2 µg/mL
- increase in hepatic LDLR mRNA [5]: 3.5 fold
- increase in hepatic LDLR protein [5]: 2.6 fold
- reduction of LDL-cholesterol [5]: 42%
- reduction of serum cholesterol [5]: 40%
- IC50 (murine leukemia L1210; Jantova, 2003): less than 4 microg mL(−1)
- IC50 (murine leukemia L1210; Kettman, 2004): less than 4 microg/ml
- Minimum Inhibitory Concentration (MIC) (Streptococcus mutans): 125 µg/mL
- cell proliferation rate, CaCo2 ([6]; combination of 0.5% berberine and 0.5% leaf extract): 48%
- cell proliferation, CaCo2 ([6]; treated with 0.5%): 75%
- reduction of LDL-cholesterol [7]: 25%
- reduction of serum cholesterol [7]: 29%
- reduction of triglycerides [7]: 35%
- subjects Giardia-free upon stool analysis (Giardia): 68%
- subjects asymptomatic / resolution of symptoms (Giardia): 48%
- cytotoxicity (hepatoma HepG2 cells): significant cytotoxicity
- Proliferation of McF7 compared to the untreated cells ([8]; 0.5% berberine combined with 1.5% leaf extract): 59%
- Cell proliferation of McF7, % of the control ([8]; treated at a concentration of 2%): 45%
- IC50 (human tumour HeLa; Jantova, 2003): less than 4 microg mL(−1)
- IC50 (human tumour HeLa; Kettman, 2004): less than 4 microg/ml
- inhibition of "friendly" bacteria [9]: weak or no inhibition
- cytotoxicity [10]: ineffective
- IC50 [11]: 3.4 µg/mL
- negative stool specimens after 10 days (Giardiasis): Ninety
- remained negative one month later (Giardiasis): 83%
- MIC50 [12]: 12.5 µg/mL
- tumor volume (transplanted B16 line): significant reduction
- concentrations that inhibit COX-2 transcriptional activity [13]: higher than 0.3 microM

Structure (SMILES): COc1ccc2c(c1OC)C(=O)O[C@@H]2[C@H]1c2cc3c(cc2CCN1C)OCO3 [beta-hydrastine]
- MIC50 [12]: 100.0 µg/mL (≈ 261 µM)

Structure (SMILES): O=C(O)c1cn(C2CC2)c2cc(N3CCNCC3)c(F)cc2c1=O [Ciprofloxacin]
- MIC (SA-K2068; read-out: SA K2068 MIC, +312.5 μg/mL leaf ext.): 0.5 µg/mL
- MIC (SA-K2068; read-out: SA K2068 MIC, +625 μg/mL leaf ext.): 0.5 µg/mL
- MIC (SA-K2068; read-out: SA K2068 MIC, +5~20 μg/mL Reserpine): 0.5 µg/mL
- MIC (SA-K2068; read-out: SA K2068 MIC, agent alone): 4 µg/mL
- MIC (SA-1199B; +312.5 μg/mL leaf ext.): 2 µg/mL
- MIC (SA-1199B; +625 μg/mL leaf ext.): 2 µg/mL
- MIC (SA-1199B; +1250 μg/mL leaf ext.): < 0.5 µg/mL
- MIC (SA-1199B; +5~20 μg/mL Reserpine): 1 µg/mL
- MIC (SA-1199B; agent alone): 8 µg/mL

Structure (SMILES): [O]=[V]([O-])([O-])[O-] [orthovanadate]
- concentration determined to be non-inhibitory (up to) (E. coli strain ORN178): ≤ 4 mM

Structure (SMILES): Cc1ncc([N+](=O)[O-])n1CCO [metronidazole]
- subjects Giardia-free upon stool analysis (Giardia): All
- subjects asymptomatic / resolution of symptoms (Giardia): 33%
- negative stool specimens after 10 days (Giardiasis): 95%
- remained negative one month later (Giardiasis): 90%

— patent US8003136B2, “Standardization of botanical products utilizing biological activity as a marker” (priority 2004, dated 2011)
